Results from patent publication US20250228239A1, “MOLECULES HAVING PESTICIDAL UTILITY, AND INTERMEDIATES, COMPOSITIONS, AND PROCESSES, RELATED THERETO” (priority 2024, published 2025).
Like-named read-outs stand apart in the source and are kept apart here.

Tests used:
[1] = system: Beet Armyworm (Spodoptera exigua, LAPHEG); assay: Bioassays on Beet Armyworm (BAW), 128-well diet tray assay; type: in vivo; conditions: Spodoptera exigua
Procedure, shortened: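 Larvae at second instar are exposed on dried, compound-treated diet (50 μg/cm^2, delivered in 90:10 acetone-water) in eight replicate wells. After five to seven days at 25° C., 14:10 light-dark, percent mortality in each well is scored and the eight wells averaged.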

[2] = system: Cabbage Looper (Trichoplusia ni, TRIPNI); assay: Bioassays on Cabbage Looper (CL), 128-well diet tray assay; type: in vivo; conditions: Trichoplusia ni
Procedure, shortened: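 Each of eight wells receives artificial diet treated at 50 μg/cm^2 with the test molecule, then one to five second-instar larvae. Incubation runs five to seven days at 25° C with a 14:10 light-dark cycle under vented covers. Mortality is scored per well as a percentage and averaged.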

[3] = Beet Armyworm, Table ABC / ABC-DP rating, read-out: BAW rating
[4] = Cabbage Looper, Table ABC / ABC-DP rating, read-out: CL rating
[5] = Beet Armyworm, rating class, read-out: BAW
[6] = Cabbage Looper, rating class, read-out: CL
[7] = Table ABC: Biological Results, species BAW, read-out: BAW
[8] = Table ABC: Biological Results, species CL, read-out: CL

| Structure (SMILES) | pest or weed control at 50 µg/cm2 [1, 5] | pest or weed control at 50 µg/cm2 [2, 6] | other results |
| --- | --- | --- | --- |
| O=C(NNCc1ccc(F)cc1)c1cc(NC(=O)[C@H]2[C@H](c3cc(Cl)cc(Cl)c3)C2(Cl)Cl)ccc1Cl (relative stereo) [F2570, trans-2,2-dichloro-N-(4-chloro-3-(2-(4-fluorobenzyl)hydrazine-1-carbonyl)phenyl)-3-(3,5-dichlorophenyl)cyclopropane-1-carboxamide] |  |  | mortality at 50 µg/cm2 ([1]; 168 h, second instar larvae, 50 μg/cm^2 of test molecule on artificial diet, 25° C., five to seven days, average of eight wells, read-out: BAW % Control (or Mortality) rating): 50 to 100%; pest or weed control at 50 µg/cm2 [1, 3]: 50 to 100%; mortality at 50 µg/cm2 ([2]; 168 h, second instar larvae, 50 μg/cm^2 of test molecule on artificial diet, 25° C., five to seven days, average of eight wells, read-out: CL % Control (or Mortality) rating): 50 to 100%; pest or weed control at 50 µg/cm2 [2, 4]: 50 to 100% |
| CC(=O)Nc1ccc(F)c(NC(=O)c2cc(NC(=O)[C@H]3[C@H](c4cc(Cl)c(Cl)c(Cl)c4)C3(Cl)Cl)cc(F)c2Cl)c1F [F1520, N-(3-Acetamido-2,6-difluorophenyl)-2-chloro-5-((1R,3R)-2,2-dichloro-3-(3,4,5-trichlorophenyl)cyclopropane-1-carboxamido)-3-fluorobenzamide] | 50 to 100% | 50 to 100% |  |
| CC(=O)Nc1ccc(F)c(NC(=O)c2cc(NC(=O)[C@H]3[C@H](c4ccc(Cl)c(Cl)c4)C3(Cl)Cl)ccc2F)c1F [F1514, N-(3-Acetamido-2,6-difluorophenyl)-5-((1R,3R)-2,2-dichloro-3-(3,4-dichlorophenyl)cyclopropane-1-carboxamido)-2-fluorobenzamide] | 50 to 100% | 50 to 100% |  |
| O=C(COCC(F)(F)F)Nc1c(F)ccc(NC(=O)c2cc(NC(=O)[C@H]3[C@H](c4ccc(Cl)c(Cl)c4)C3(Cl)Cl)ccc2Cl)c1F [F1863, 2-Chloro-5-((1R,3R)-2,2-dichloro-3-(3,4-dichlorophenyl)cyclopropane-1-carboxamido)-N-(2,4-difluoro-3-(2-(2,2,2-trifluoroethoxy)acetamido)phenyl) benzamide] |  |  | pest or weed control at 50 µg/cm2 [1, 3]: 50 to 100%; pest or weed control at 50 µg/cm2 [2, 4]: 50 to 100% |
| O=C(Nc1cc(NC(=O)C(F)(F)F)c(F)cc1F)c1cc(NC(=O)[C@H]2[C@H](c3ccc(Cl)c(Cl)c3)C2(Cl)Cl)cc(F)c1Cl [F1403, 2-Chloro-5-((1R,3R)-2,2-dichloro-3-(3,4-dichlorophenyl)cyclopropane-1-carboxamido)-N-(2,4-difluoro-5-(2,2,2-trifluoroacetamido)phenyl)-3-fluorobenzamide] | 50 to 100% | 50 to 100% |  |
| O=C(Nc1c(F)ccc(NC(=O)C(F)(F)C(F)F)c1F)c1cc(NC(=O)[C@H]2[C@H](c3ccc(Cl)c(Cl)c3)C2(Cl)Cl)ccc1Cl [F1535, 2-Chloro-5-((1R,3R)-2,2-dichloro-3-(3,4-dichlorophenyl)cyclopropane-1-carboxamido)-N-(2,6-difluoro-3-(2,2,3,3-tetrafluoropropanamido)phenyl)benzamide] | 50 to 100% | 50 to 100% |  |
| COc1c(F)cc(NC(=O)[C@H]2[C@H](c3ccc(F)c(Cl)c3)C2(Cl)Cl)cc1C(=O)Nc1ccc(F)c(N)c1F (relative stereo) [F1226, trans-N-(3-Amino-2,4-difluorophenyl)-5-(2,2-dichloro-3-(3-chloro-4-fluoro-phenyl)cyclopropane-1-carboxamido)-3-fluoro-2-methoxybenzamide] |  |  | pest or weed control at 50 µg/cm2 [1, 7]: 50 to 100%; pest or weed control at 50 µg/cm2 [2, 8]: 50 to 100% |
| O=C(Nc1cc(NC(=O)C(F)(F)F)c(F)cc1F)c1cc(NC(=O)[C@H]2[C@H](c3cc(Cl)c(Cl)c(Cl)c3)C2(Cl)Cl)cc(F)c1Cl [F1405, 2-Chloro-5-((1R,3R)-2,2-dichloro-3-(3,4,5-trichlorophenyl)cyclopropane-1-carboxamido)-N-(2,4-difluoro-5-(2,2,2-trifluoroacetamido)phenyl)-3-fluorobenzamide] | 50 to 100% | 50 to 100% |  |
| Nc1cc(NC(=O)c2cc(NC(=O)[C@H]3[C@H](c4ccc(Cl)c(Cl)c4)C3(Cl)Cl)ccc2F)c(F)cc1F [F1490, N-(5-Amino-2,4-difluorophenyl)-5-((1R,3R)-2,2-dichloro-3-(3,4-dichlorophenyl)cyclopropane-1-carboxamido)-2-fluorobenzamide] | 50 to 100% | 50 to 100% |  |
| O=C(Nc1cc(NC(=O)C(F)(F)F)ccc1F)c1cc(NC(=O)[C@H]2[C@H](c3cc(Cl)cc(Cl)c3)C2(Cl)Cl)ccc1Cl (relative stereo) [F1640, trans-2-Chloro-5-(2,2-dichloro-3-(3,5-dichlorophenyl)cyclopropane-1-carboxamido)-N-(2-fluoro-5-(2,2,2-trifluoroacetamido)phenyl)benzamide] | 50 to 100% | 50 to 100% |  |
| O=C(Nc1c(F)ccc(NC(=O)C(F)(F)C(F)(F)C(F)(F)F)c1F)c1cc(NC(=O)[C@H]2[C@H](c3cc(Cl)c(Cl)c(Cl)c3)C2(Cl)Cl)cc(F)c1F [F1779, 5-((1R,3R)-2,2-Dichloro-3-(3,4,5-trichlorophenyl)cyclopropane-1-carboxamido)-N-(2,6-difluoro-3-(2,2,3,3,4,4,4-heptafluorobutanamido)phenyl)-2,3-difluorobenzamide] |  |  | pest or weed control at 50 µg/cm2 [1, 3]: 50 to 100%; pest or weed control at 50 µg/cm2 [2, 4]: 50 to 100% |
| CNc1c(F)ccc(NC(=O)c2cc(NC(=O)[C@H]3[C@H](c4ccc(Cl)c(Cl)c4)C3(Cl)Cl)ccc2Cl)c1F [F1550, 2-Chloro-5-((1R,3R)-2,2-dichloro-3-(3,4-dichlorophenyl)cyclopropane-1-carboxamido)-N-(2,4-difluoro-3-(methylamino)phenyl)benzamide] | 50 to 100% | 50 to 100% |  |
| Cc1cc(NC(=O)[C@H]2[C@H](c3cc(Cl)c(Cl)c(Cl)c3)C2(Cl)Cl)cc(C(=O)Nc2ccc(F)c(NC(=O)C(F)F)c2F)c1Cl [F1486, 2-Chloro-5-((1R,3R)-2,2-dichloro-3-(3,4,5-trichlorophenyl)cyclopropane-1-carboxamido)-N-(3-(2,2-difluoroacetamido)-2,4-difluorophenyl)-3-methylbenzamide] | 50 to 100% | 50 to 100% |  |
| O=C(CC(F)(F)F)NNC(=O)c1cc(NC(=O)[C@H]2[C@H](c3cc(Cl)cc(Cl)c3)C2(Cl)Cl)ccc1Cl (relative stereo) [F2516, trans-2,2-Dichloro-N-(4-chloro-3-(2-(3,3,3-trifluoropropanoyl)hydrazine-1-carbonyl)phenyl)-3-(3,5-dichlorophenyl)cyclopropane-1-carboxamide] |  |  | pest or weed control at 50 µg/cm2 [1, 3]: 50 to 100%; pest or weed control at 50 µg/cm2 [2, 4]: 50 to 100% |
| O=C(Nc1c(F)ccc(NC(=O)c2cc(NC(=O)[C@H]3[C@H](c4ccc(F)c(C(F)(F)F)c4)C3(Cl)Cl)ccc2Cl)c1F)c1ccc(F)cc1 [F1204, 2-chloro-5-((1R,3R)-2,2-dichloro-3-(4-fluoro-3-(trifluoromethyl)phenyl)cyclopropane-1-carboxamido)-N-(2,4-difluoro-3-(4-fluorobenzamido)phenyl)benzamide] |  |  | pest or weed control at 50 µg/cm2 [1, 7]: 50 to 100%; pest or weed control at 50 µg/cm2 [2, 8]: 50 to 100% |
| CC(=O)C1(C(=O)Nc2c(F)ccc(NC(=O)c3cc(NC(=O)[C@H]4[C@H](c5ccc(F)c(C(F)(F)F)c5)C4(Cl)Cl)ccc3Cl)c2F)CC1 [F1850, N-(3-(1-Acetylcyclopropane-1-carboxamido)-2,4-difluorophenyl)-2-chloro-5-((1R,3R)-2,2-dichloro-3-(4-fluoro-3-(trifluoromethyl)phenyl)cyclopropane-1-carboxamido)benzamide] |  |  | pest or weed control at 50 µg/cm2 [1, 3]: 50 to 100%; pest or weed control at 50 µg/cm2 [2, 4]: 50 to 100% |
| Cc1c(F)cc(NC(=O)[C@H]2[C@H](c3ccc(F)c(Cl)c3)C2(Cl)Cl)cc1C(=O)Nc1ccc(F)c(N)c1F (relative stereo) [F1286, trans-N-(3-Amino-2,4-difluorophenyl)-5-(2,2-dichloro-3-(3-chloro-4-fluorophenyl)cyclopropane-1-carboxamido)-3-fluoro-2-methylbenzamide] |  |  | pest or weed control at 50 µg/cm2 [1, 7]: 50 to 100%; pest or weed control at 50 µg/cm2 [2, 8]: 50 to 100% |
| Nc1c(F)ccc(NC(=O)c2cc(NC(=O)[C@H]3[C@H](c4ccc(F)c(Cl)c4)C3(Cl)Cl)cc(F)c2Cl)c1F (relative stereo) [F1156, trans-N-(3-Amino-2,4-difluorophenyl)-2-chloro-5-(2,2-dichloro-3-(3-chloro-4-fluorophenyl)cyclopropane-1-carboxamido)-3-fluorobenzamide] |  |  | pest or weed control at 50 µg/cm2 [1, 7]: 50 to 100%; pest or weed control at 50 µg/cm2 [2, 8]: 50 to 100% |
| O=C(Nc1ccc(F)cc1F)c1c(Cl)ccc(NC(=O)[C@H]2[C@H](c3ccc(F)c(Cl)c3)C2(Cl)Cl)c1F [F1464, 6-Chloro-3-((1R,3R)-2,2-dichloro-3-(3-chloro-4-fluorophenyl)cyclopropane-1-carboxamido)-N-(2,4-difluorophenyl)-2-fluorobenzamide] | 50 to 100% | 50 to 100% |  |
| O=C(Nc1ccc(F)c(NC(=O)C2CCCO2)c1F)c1cc(NC(=O)[C@H]2[C@H](c3cc(Cl)c(Cl)c(Cl)c3)C2(Cl)Cl)ccc1Cl (stereo partly drawn) [F1647, N-(3-(2-Chloro-5-((1R,3R)-2,2-dichloro-3-(3,4,5-trichlorophenyl)cyclopropane-1-carboxamido)benzamido)-2,6-difluorophenyl)tetrahydrofuran-2-carboxamide] | 50 to 100% | 50 to 100% |  |
